What was measured:
[1] = tested on: self-administration (addictive potential); assay: I.v. self-administration of CP612, between-session progressive ratio and demand curve; details: rat, in vivo
Description: We tested the addictive potential of CP612 by examining the extent to which rats are willing to work to obtain CP612. Rats were initially trained to self-administer either saline, morphine (500 μg/kg/i.v. infusion), or 1 of 3 different doses of CP612 (75, 150, or 300 μg/kg/i.v. infusion) for 4 days at fixed ratio 1 (FR1, where 1 nose poke delivers 1 infusion).
During the second phase, the ratio to obtain an infusion increased geometrically every other day (FR1, FR3, FR6, FR12, FR24, FR48, and FR96).
Data (number of self-infusions) were also fitted in an economic-demand curve, which provides an estimate of the motivation to obtain drugs and their addictive potential ([20]). We measured elasticity (α), which is the relative change in consumption as a function of price (i.e., ratio of nose pokes required to obtain an infusion). Behavior is considered “inelastic” when consumption is insensitive to price and “elastic” when consumption is sensitive to price. We also measured Pmax, which is the price at which intake switches from inelastic to elastic. […] (Figure 8B).
Rats not immediately anesthetized were eliminated from the study.
Following this initial acquisition phase at FR1, the ratio to obtain the drug was increased geometrically every other day: FR3 (3 nose pokes are required to obtain 1 infusion of morphine), FR6, FR12, FR24, FR48, and FR96. This allows for analysis of drug consumption as a function of “price” using demand curves for behavioral economics, which can estimate the motivation to obtain drugs and their “addictive potential” ([20]). For this, data from each rat were fitted to the equation log Q = log Q0 + k (e ^–α(Q0 ^C) – 1), where Q represents consumption (number of self-infusions), and Q0 represents the level of consumption at the lowest price. C represents price for the drug (i.e., the ratio), and k is set to a constant accounting for the estimated range of consumption in logarithmic units (k = 4 in these studies). The symbol α is the relative change in consumption across changes in price (ratio). Behavior is considered “inelastic” when consumption is insensitive to price (i.e., the curve is flat, and consumption is maintained despite increases in price), and it switches to “elastic” when consumption is sensitive to price (i.e., when the curve is steep and consumption declines with increases in price). […] We also compared groups for their average intake in the consumption-price curves by measuring α (elasticity) and Pmax.

[2] = tested on: morphine self-administration; assay type: in vivo; details: morphine 500 µg/kg/infusion alone, individual rats and group mean
Description: Because many patients with chronic pain take opioids for pain management ([8], [9]), we wanted to know if CP612 would change opioid intake. Therefore, we investigated if adding CP612 to the morphine solution during self-administration (i.e., a cocktail of morphine and CP612) modifies self-administration of morphine. We tested rats from the prior experiment for self-administration of morphine (500 μg/kg/i.v. infusion). Rats were first tested under a FR6 to reestablish responding.
Rats not immediately anesthetized were eliminated from the study. This excluded 2 rats from all experiments.

[3] = tested on: paclitaxel-induced hyperalgesia; assay: Paclitaxel-induced hyperalgesia, Randall-Selitto paw pressure test; details: male rats; 1 mg/kg i.p. on days 1, 3, 5, 7
Description: We tested if CP612 reverses this hyperalgesia. Male rats received repeated injections of paclitaxel (1 mg/kg, i.p. on days 1, 3, 5, and 7). Twenty-four hours after the last dose of paclitaxel, rats were administered vehicle (2 mL/kg, i.p.) or CP612 (20 mg/kg, i.p.).
Mechanical nociceptive thresholds in rats were quantified by the Randall-Selitto paw pressure test using an Ugo Basile Analgesy-Meter. This device applies a linearly increasing mechanical force to the dorsum or plantar region of the rat hind paw. The mechanical nociceptive threshold is defined as the force in grams at which a rat withdraws its paw. The higher the force to elicit paw withdrawal, the higher the pain threshold (and the lower the sensitivity to pain). For studies testing nociceptive thresholds after the PKCε activator ψεRACK, or after the cancer chemotherapeutic drug paclitaxel, rats were placed into cylindrical acrylic restrainers for 40 minutes before starting each session. The restrainers had lateral ports to allow access to the hind paw, as previously described ([35]), and pain thresholds were measured by applying force to the dorsum of the hind paw. Prior to starting experiments, baseline mechanical nociceptive threshold was obtained as the mean of 2–3 readings on 1 hind paw in each rat.

## CN1CC[C@]23c4c5ccc(O)c4O[C@H]2[C@@H](O)C=C[C@H]3[C@H]1C5 [Mor]
[1]
  AVG AH (FR3): 25.72
  AVG AH (FR6): 41.83
  AVG AH (FR12): 75.17
  AVG AH (FR24): 136.00
  AVG AH (FR48): 160.11
  AVG AH (FR96): 163.28
  AVG IH (FR1_D1 to D4): 7.83
  AVG IH (FR1_Last 2 FR1 days): 4.44
  AVG IH (FR1_Last 4 FR1 days): 6.31
  AVG IH (FR3): 9.28
  AVG IH (FR6): 8.33
  AVG IH (FR12): 9.39
  AVG IH (FR24): 10.72
  AVG IH (FR48): 14.00
  AVG IH (FR96): 15.22
  AVG Inf (FR3): 7.00
  AVG Inf (FR6): 6.22
  AVG Inf (FR12): 5.56
  AVG Inf (FR24): 5.00
  AVG Inf (FR48): 2.83
  AVG Inf (FR96): 1.17
  AVG Latency (FR1_D1 to D4): 2.60
  AVG Latency (FR1_Last 2 FR1 days): 0.81
  AVG Latency (FR1_Last 4 FR1 days): 0.93
  AVG Latency (FR3): 0.62
  AVG Latency (FR6): 1.19
  AVG Latency (FR12): 1.12
  AVG Latency (FR24): 1.19
  AVG Latency (FR48): 0.69
  AVG Latency (FR96): 0.92
  D1 AH (FR1): 13.44
  D1 AH (FR3): 24.67
  D1 AH (FR6): 38.44
  D1 AH (FR12): 75.11
  D1 AH (FR24): 135.67
  D1 AH (FR48): 167.78
  D1 AH (FR96): 169.67
  D1 IH (FR1): 11.56
  D1 IH (FR3): 9.11
  D1 IH (FR6): 7.11
  D1 IH (FR12): 9.22
  D1 IH (FR24): 10.56
  D1 IH (FR48): 13.22
  D1 IH (FR96): 17.11
  D1 Inf (FR1): 8.78
  D1 Inf (FR3): 6.56
  D1 Inf (FR6): 5.67
  D1 Inf (FR12): 5.67
  D1 Inf (FR24): 4.89
  D1 Inf (FR48): 2.89
  D1 Inf (FR96): 1.33
  D1 Latency (FR1): 7.37
  D1 Latency (FR3): 0.52
  D1 Latency (FR6): 0.51
  D1 Latency (FR12): 0.93
  D1 Latency (FR24): 0.99
  D1 Latency (FR48): 0.71
  D1 Latency (FR96): 1.02
  D2 AH (FR1): 11.44
  D2 AH (FR3): 26.78
  D2 AH (FR6): 45.22
  D2 AH (FR12): 75.22
  D2 AH (FR24): 136.33
  D2 AH (FR48): 152.44
  D2 AH (FR96): 156.89
  D2 IH (FR1): 6.89
  D2 IH (FR3): 9.44
  D2 IH (FR6): 9.56
  D2 IH (FR12): 9.56
  D2 IH (FR24): 10.89
  D2 IH (FR48): 14.78
  D2 IH (FR96): 13.33
  D2 Inf (FR1): 8.89
  D2 Inf (FR3): 7.44
  D2 Inf (FR6): 6.78
  D2 Inf (FR12): 5.44
  D2 Inf (FR24): 5.11
  D2 Inf (FR48): 2.78
  D2 Inf (FR96): 1.00
  D2 Latency (FR1): 0.74
  D2 Latency (FR3): 0.72
  D2 Latency (FR6): 1.88
  D2 Latency (FR12): 1.31
  D2 Latency (FR24): 1.39
  D2 Latency (FR48): 0.68
  D2 Latency (FR96): 0.82
  D3 AH (FR1): 14.11
  D3 IH (FR1): 8.44
  D3 Inf (FR1): 9.22
  D3 Latency (FR1): 1.40
  D4 AH (FR1): 14.00
  D4 IH (FR1): 4.44
  D4 Inf (FR1): 9.56
  D4 Latency (FR1): 0.90
  last AH (FR1): 14.00
  last IH (FR1): 4.44
  last Inf (FR1): 9.78
  last Latency (FR1): 0.71
  last-1 AH (FR1): 14.00
  last-1 IH (FR1): 4.44
  last-1 Inf (FR1): 9.56
  last-1 Latency (FR1): 0.90
  last-2 AH (FR1): 14.11
  last-2 IH (FR1): 8.44
  last-2 Inf (FR1): 9.22
  last-2 Latency (FR1): 1.40
  last-3 AH (FR1): 12.67
  last-3 IH (FR1): 7.89
  last-3 Inf (FR1): 8.89
  last-3 Latency (FR1): 0.69
[2]; Day 3, progressive ratio
  D3 Breakin Point (PR): 38.3
[2]; active hole, Day 1, fixed ratio
  D1 AH (FR6): 49.2
[2]; active hole, Day 2, fixed ratio
  D2 AH (FR6): 68.6
[2]; active hole, Day 3, progressive ratio
  D3 AH (PR): 186.1
[2]; inactive hole, Day 1, fixed ratio
  D1 IH (FR6): 4.7
[2]; inactive hole, Day 2, fixed ratio
  D2 IH (FR6): 5.2
[2]; inactive hole, Day 3, progressive ratio
  D3 IH (PR): 8.8
[2]; infusions, Day 1, fixed ratio
  D1 Inf (FR6): 6.7
[2]; infusions, Day 2, fixed ratio
  D2 Inf (FR6): 9.4
[2]; infusions, Day 3, progressive ratio
  D3 Inf (PR): 10.5
[2]; intake, Day 1, fixed ratio
  D1 mg/kg (FR6): 3.3 mg/kg
[2]; intake, Day 2, fixed ratio
  D2 mg/kg (FR6): 4.7 mg/kg
[2]; intake, Day 3, progressive ratio
  D3 mg/kg (PR): 5.2 mg/kg
[2]; time to first self-administered infusion, Day 1, fixed ratio
  D1 Latency (FR6): 3.3 min
[2]; time to first self-administered infusion, Day 2, fixed ratio
  D2 Latency (FR6): 2.8 min

## CC(=O)O[C@H]1C(=O)[C@@]2(C)[C@H]([C@H](OC(=O)c3ccccc3)[C@]3(O)C[C@H](OC(=O)[C@H](O)[C@@H](NC(=O)c4ccccc4)c4ccccc4)C(C)=C1C3(C)C)[C@]1(OC(C)=O)CO[C@@H]1C[C@@H]2O [Paclitaxel]
[3]
  Effect of paclitaxel on nociceptive threshold: induced hyperalgesia

Source: article PMC12016938, “A small molecule PKCε inhibitor reduces hyperalgesia induced by paclitaxel or opioid withdrawal” (JCI Insight, 2025)
